Measured values published in ChEMBL document CHEMBL3867476, “Novel 5-substituted 3-hydroxyphenyl and 3-nitrophenyl ethers of S-prolinol as α4β2-nicotinic acetylcholine receptor ligands” (Bioorg Med Chem Lett, 2016).

Assays:
[1] = biological target: T1, Neuronal acetylcholine receptor; alpha4/beta2 (Rattus norvegicus, UniProt P09483+P12390); assay: Displacement of [3H]-epibatidine from alpha4beta2-nACHR in rat cerebral cortex membranes preincubated for 30 mins followed by overnight incubation with [3H]-epibatine; format: cell membranes, Membrane
[2] = biological target: Neuronal acetylcholine receptor; alpha3/beta4 (Homo sapiens, UniProt P30926+P32297); assay: Displacement of [3H]-epibatine from human alpha3beta4-nACHR expressed in […] cell membranes preincubated for 5 mins followed by overnight incubation with [3H]-epibatine by liquid scintillation counting analysis
HEK243 = assay: Selectivity ratio of Ki for human alpha3beta4-nACHR expressed in […] cells to Ki for alpha4beta2-nACHR in rat cerebral cortex membranes; format: cell-based
[3] = biological target: T1, Neuronal acetylcholine receptor; alpha4/beta2; assay: Displacement of [3H]-cytisine from alpha4beta2-nACHR in rat whole brain membranes incubated for 60 mins; format: cell membranes, Membrane

T1 sequence (P09483 whole entry): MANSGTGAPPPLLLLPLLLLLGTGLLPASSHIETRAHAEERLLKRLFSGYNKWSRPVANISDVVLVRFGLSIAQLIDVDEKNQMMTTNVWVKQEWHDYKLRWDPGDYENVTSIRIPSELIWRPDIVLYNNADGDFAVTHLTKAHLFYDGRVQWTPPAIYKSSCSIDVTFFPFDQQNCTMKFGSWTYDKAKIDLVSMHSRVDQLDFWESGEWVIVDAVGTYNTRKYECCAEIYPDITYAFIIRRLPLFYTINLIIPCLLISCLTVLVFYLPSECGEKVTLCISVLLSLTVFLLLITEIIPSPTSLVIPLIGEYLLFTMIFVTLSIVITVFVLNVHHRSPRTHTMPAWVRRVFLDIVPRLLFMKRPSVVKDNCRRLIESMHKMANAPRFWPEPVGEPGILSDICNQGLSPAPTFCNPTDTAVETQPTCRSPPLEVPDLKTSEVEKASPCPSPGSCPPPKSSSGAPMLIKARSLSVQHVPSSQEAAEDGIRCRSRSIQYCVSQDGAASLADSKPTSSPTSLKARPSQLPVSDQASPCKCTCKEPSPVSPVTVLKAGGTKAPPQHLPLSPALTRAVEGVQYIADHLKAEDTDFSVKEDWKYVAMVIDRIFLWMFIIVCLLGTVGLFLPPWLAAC
T1 sequence (P12390 whole entry): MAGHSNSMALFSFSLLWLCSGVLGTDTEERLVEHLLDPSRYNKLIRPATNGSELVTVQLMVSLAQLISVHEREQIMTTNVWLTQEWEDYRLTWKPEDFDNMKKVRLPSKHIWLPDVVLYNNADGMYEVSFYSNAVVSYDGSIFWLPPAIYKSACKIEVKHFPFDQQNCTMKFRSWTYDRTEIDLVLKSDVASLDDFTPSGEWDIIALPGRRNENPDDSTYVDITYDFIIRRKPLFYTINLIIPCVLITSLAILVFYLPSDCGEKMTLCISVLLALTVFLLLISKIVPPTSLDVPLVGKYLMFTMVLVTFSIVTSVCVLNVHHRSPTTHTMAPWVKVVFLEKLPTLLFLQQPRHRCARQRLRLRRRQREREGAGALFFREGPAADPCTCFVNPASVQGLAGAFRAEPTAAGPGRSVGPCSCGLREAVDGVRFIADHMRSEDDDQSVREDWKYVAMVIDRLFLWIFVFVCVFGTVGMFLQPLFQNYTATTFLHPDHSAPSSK
Sequence of Neuronal acetylcholine receptor; alpha3/beta4 (P30926 whole entry): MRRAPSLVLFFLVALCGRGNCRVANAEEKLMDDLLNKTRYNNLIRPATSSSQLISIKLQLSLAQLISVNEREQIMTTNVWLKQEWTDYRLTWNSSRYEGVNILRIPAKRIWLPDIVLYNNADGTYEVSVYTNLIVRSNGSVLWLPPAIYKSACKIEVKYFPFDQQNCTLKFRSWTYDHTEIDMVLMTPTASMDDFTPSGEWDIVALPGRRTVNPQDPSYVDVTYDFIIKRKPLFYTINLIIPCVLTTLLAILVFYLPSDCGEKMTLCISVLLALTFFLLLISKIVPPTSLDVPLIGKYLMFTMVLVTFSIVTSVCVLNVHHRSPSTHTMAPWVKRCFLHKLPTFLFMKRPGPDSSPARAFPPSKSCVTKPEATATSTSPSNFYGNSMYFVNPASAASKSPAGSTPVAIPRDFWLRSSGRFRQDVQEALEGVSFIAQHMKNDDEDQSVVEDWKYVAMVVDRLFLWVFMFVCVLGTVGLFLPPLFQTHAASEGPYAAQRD
Sequence of Neuronal acetylcholine receptor; alpha3/beta4 (P32297 whole entry): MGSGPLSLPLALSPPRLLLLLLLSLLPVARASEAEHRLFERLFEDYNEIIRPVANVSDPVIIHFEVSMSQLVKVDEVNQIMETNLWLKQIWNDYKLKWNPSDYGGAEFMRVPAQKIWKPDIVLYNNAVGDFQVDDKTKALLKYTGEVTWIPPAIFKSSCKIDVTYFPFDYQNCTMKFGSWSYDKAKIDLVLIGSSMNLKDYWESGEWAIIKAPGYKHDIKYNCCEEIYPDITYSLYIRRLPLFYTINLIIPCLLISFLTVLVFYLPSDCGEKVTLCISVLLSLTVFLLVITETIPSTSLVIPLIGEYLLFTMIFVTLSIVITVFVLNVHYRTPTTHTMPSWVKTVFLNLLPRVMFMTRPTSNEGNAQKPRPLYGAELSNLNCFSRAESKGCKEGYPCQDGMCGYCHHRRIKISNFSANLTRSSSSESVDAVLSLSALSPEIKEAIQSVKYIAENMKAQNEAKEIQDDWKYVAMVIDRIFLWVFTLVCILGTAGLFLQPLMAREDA

SMILES	Ki [1]	Ki [2]	Ratio Ki (HEK243)	Ki [3]
CN1CCC[C@H]1COc1cccc([N+](=O)[O-])c1	31.2 nM	946 nM	30	9 nM
CN1CCC[C@H]1COc1cccc(C#CCCCCO)c1	4400 nM	8300 nM	2	
CN1CCC[C@H]1COc1cc(O)cc(Br)c1	186 nM	147 nM	0.8	
COc1cccc(OC[C@@H]2CCCN2C)c1	600 nM	4500 nM	7	
CN1CCC[C@H]1COc1cc(O)cc(-c2ccccc2)c1	528 nM	200 nM	0.4	
CN1CCC[C@H]1COc1cc(O)cc(-c2ccc(O)cc2)c1	3.8 nM	30 nM	8	
CN1CCC[C@H]1COc1cc(Br)cc([N+](=O)[O-])c1	55 nM	415 nM	8	
CN1CCC[C@H]1COc1cc(O)cc(C#CCCCCO)c1	23.7 nM	3100 nM	131	
CN1CCC[C@H]1COc1cc(C#CCCCCO)cc([N+](=O)[O-])c1	14.2 nM	1200 nM	85	
CN1CCC[C@H]1COc1cc(-c2ccccc2)cc([N+](=O)[O-])c1	330 nM	947 nM	3	
CN1CCC[C@H]1COc1cc(-c2ccc(O)cc2)cc([N+](=O)[O-])c1	12 nM	122 nM	10	
